Measured values: patent US20090291913A1, “FACTOR Xa INHIBITOR FORMULATION AND METHOD” (Bristol-Myers Squibb Company, priority 2005, published 2009)

Experiments:
[1] = solubility in substituted-β-cyclodextrin solution as a function of pH; assay type: physicochemical
[2] = aqueous solubility as a function of pH; assay type: physicochemical
[3] = aqueous buffer, neutral form / free base, room temperature, pH 6.8

Row | solubility in the substituted-β-cyclodextrins ([1]; pH 4.5 versus higher pH's up to 11) | solubility in substituted-β-cyclodextrin solution ([1]; pH lowered to between about 3 and about 4) | solubility [2, 3] [µg/mL] | solubility ([2]; simulated gastric fluid, hydrochloride salt, normal gastric pH condition, pH of gastric medium ~1-2) [µg/mL] | Compound | solubility on adjusting pH ([2]; pH adjusted within pH 3-11, needed level e.g. 2.5 mg/mL)
1 | same solubility | increase in solubility | < 1 | ~3000 | CN(C)Cc1nccn1-c1ccc(NC(=O)c2cc(C(F)(F)F)nn2-c2ccc3onc(N)c3c2)c(F)c1.Cl [razaxaban] | could not be increased to the needed level
2 |  |  | < 1 |  | COc1ccc(-n2nc(C(N)=O)c3c2C(=O)N(c2ccc(N4CCCCC4=O)cc2)CC3)cc1 [Apixaban, 1-(4-methoxyphenyl)-7-oxo-6-[4-(2-oxo-1-piperidinyl)phenyl]-4,5,6,7-tetrahydro-1H-pyrazolo [3,4-c]pyridine-3-carboxamide] | 
